# Experimental data: publication PMC3213642 (The Biochemical journal, 2011)
# Assays:
# FlaI = FlaI (Sulfolobus acidocaldarius, UniProt Q4J9L0, E336A); test: size-exclusion chromatography and SAXS, hexamerization; format: binding; conditions: SAXS: pH 7.0, 200 mM NaCl, 1 mM ATP, 2.5 mM MgCl2, 20 °C
# SAXS = molecular target: the molecule itself; test: SAXS
Molecule,"size-exclusion chromatography and SAXS, hexamerization (FlaI)",stoichiometry N (SAXS)
Nc1ncnc2c1ncn2[C@@H]1O[C@H](COP(=O)(O)OP(=O)(O)OP(=O)(O)O)[C@@H](O)[C@H]1O [ATP],FlaI^E336A with ATP clearly forms a hexameric ring similar to the one determined for GspE,–
"N-terminal His-tagged FlaI^E336A (Walker B mutant) (enzyme, S. acidocaldarius DSM639, UniProt Q4J9L0 1-513, looked up) MSFVEDYLTKLQERPTIIENPNILKGSKIFNAIYRVDDFVYIHIQSIKSEDGYNQYNVIEPPRPTHDEMEEIEEKFALSIGDKEPPEDTKEKEKLIRSILDKILLRMRLSVPKEYVIYHFIRDKLYTGSLEPLIRDPYIEDISIPGLGHVYIVHKVFGPMRTSIKFENYEELDNLIVSLSEKSYRPVSHNRPVVDASLPDGSRVNFVYGVDISRRGSNLTVRKFSRVPTSITQLIMFGTLSSMMAAYIWTMLDEGMNLFVCGETASGKTTTLNAITAFIPPNLKIVTIEDTPELTVPHSNWVAEVTRETGGEGTIKLFDLLKAALRQRPNYILVGAIRDKEGNVAFQAMQTGHSVMATFHAANITTLIQRLTGYPIEVPKSYINNLNIALFQTALYDKKGNLIRRVVEVDEIIDIDPVTNDVVYIPAFTYDSVQDKMLFAGKGSSYLIENKIAVKRGIDRRNIGLLYDELQMRSRFLNLLVEKKIFNYYDVWDYILRARQMGLEEAIKYVSNI",–,6
